Test results from patent US20130065818A1, “Arylamide Compounds And Compositions And Uses Thereof” (POLYMEDIX, priority 2006, published 2013).
Read-outs that look alike come from different tables or passages of the source.

What was measured:
[1] = tested on: Moraxella species (including Moraxella catarrhalis); assay: MIC, 25 ocular isolates, broth microdilution (Example 8); format: cell-based
Method: (§1) Mueller-Hinton Broth supplemented with 2% lysed horse blood in tubes was inoculated with 25 ocular isolates of Streptococcus pneumoniae, Streptococcus viridans group, and Moraxella species (including Moraxella catarrhalis) plus two controls (Staphylococcus aureus and E. coli) and incubated at 37° C. overnight. Additionally, Mueller-Hinton Broth in tubes was inoculated with two controls (Staphylococcus aureus and E. coli) and incubated at 37° C. overnight on a shaker set at 250 rpm.
(§2) On the day of testing, a 640 μg/ml (1280 μg/ml for Serratia marcescens and Pseudomonas aeruginosa) concentration was prepared from a 1% stock solution in 0.01% acetic acid, 0.2% BSA in polypropylene tubes.
(§3) Serial doubling dilutions in 0.01% acetic acid, 0.2% BSA in 96 well polypropylene plates, which are used as reservoirs for the inoculation of the test plates, were carried out to obtain serial dilutions of test agents at 10 times the required test concentrations: 640, 320, 160, 80, 40, 20, 10, 5, 2.5, 1.25, and 0.625 μg/ml (1280, 640, 320, 160, 80, 40, 20, 10, 5, 2.5, and 1.25 μg/ml for Serratia marcescens and Pseudomonas aeruginosa).
(§4) Ten μl of diluted 10×test agents was added to each well of one row of the 96 well polypropylene plates from column 2 to column 12 (column 1 is a control for bacteria alone, with no peptide). Test agent concentrations in columns 2-12 were as follows: 64, 32, 16, 8, 4, 2, 1, 0.5, 0.25, 0.125, and 0.0625 μg/ml (128, 64, 32, 16, 8, 4, 2, 1, 0.5, 0.25, and 0.125 μg/ml for Serratia marcescens and Pseudomonas aeruginosa). The same peptide was in each of the 8 rows. One plate contained dilutions of one test agent and 8 bacterial isolates.
(§5) On the day of testing, the overnight bacterial broth cultures of Streptococcus pneumoniae, Streptococcus viridans and Moraxella species (including Moraxella catarrhalis) plus two controls (Staphylococcus aureus and E. coli) were diluted in 5 ml of trypticase soy broth to yield turbidity equal to a 0.5 McFarland standard. The final inoculum for MIC testing for Streptococcus pneumoniae, Streptococcus viridans and Moraxella species (including Moraxella catarrhalis) was achieved by placing 0.1 ml of the turbidity adjusted sample to 5 ml of Mueller-Hinton broth containing 2% lysed horse red blood cells.
(§6) Ninety μl of the bacterial suspensions was dispensed in each well from column 1 to column 12. Each bacterial isolate was placed in one row of a 96 well polypropylene plate containing the test agents. The plates were placed on shaker at 15 minutes at room temperature, and then incubated at 37° C. overnight. MICs were determined visually as the lowest concentration of drug that inhibits visible bacterial growth.

[2] = tested on: Streptococcus viridans group; assay: as above; format: cell-based
Method: as §1, §2, §3, §4, §5, §6

[3] = Moraxella, 25 ocular isolates, Mueller-Hinton broth with 2% lysed horse red blood cells, read-out: Median MIC
[4] = Moraxella, isolate 1 K1614 - MS, read-out: MIC
[5] = Moraxella, isolate 2 K1661 - MS, read-out: MIC
[6] = Moraxella, isolate 3 K1643 - MS, read-out: MIC
[7] = Moraxella, isolate 4 K1640 - MS, read-out: MIC
[8] = Moraxella, isolate 5 B1431 - MS, read-out: MIC
[9] = Moraxella, isolate 6 B1429 - MS, read-out: MIC
[10] = Moraxella, isolate 7 B1418 - MS, read-out: MIC
[11] = Moraxella, isolate 8 K1784 - MS, read-out: MIC
[12] = Moraxella, isolate 9 K1773 - MS, read-out: MIC
[13] = Moraxella, isolate 10 K1369 - MS, read-out: MIC
[14] = Moraxella, isolate 11 B1275 - MS, read-out: MIC
[15] = Moraxella, isolate 12 B1221 - MS, read-out: MIC
[16] = Moraxella, isolate 13 B1172 - MS, read-out: MIC
[17] = Moraxella, isolate 14 E542 - MS, read-out: MIC
[18] = Moraxella, isolate 15 K678 - MS, read-out: MIC
[19] = Moraxella, isolate 16 K660 - MS, read-out: MIC
[20] = Moraxella, isolate 17 K599 - MC, read-out: MIC
[21] = Moraxella, isolate 18 K1650 - MC, read-out: MIC
[22] = Moraxella, isolate 19 K1373 - MC, read-out: MIC
[23] = Moraxella, isolate 20 K1553 - MC, read-out: MIC
[24] = Moraxella, isolate 21 K1453 - MC, read-out: MIC
[25] = Moraxella, isolate 22 K1227 - MC, read-out: MIC
[26] = Moraxella, isolate 23 B1102 - MC, read-out: MIC
[27] = Moraxella, isolate 24 K1819 - MC, read-out: MIC
[28] = Moraxella, isolate 25 K1855 - MC, read-out: MIC
[29] = Moraxella, n=25 isolates, >64 replaced with 128, read-out: MIC50
[30] = Moraxella, n=25 isolates, >64 replaced with 128, read-out: MIC90
[31] = Moraxella, n=25 isolates, >64 replaced with 128, read-out: Median MIC
[32] = n=25 isolates, >64 replaced with 128
[33] = 25 isolates, Row 22, >64 was Replaced with 128
[34] = 25 isolates, Summary of Results, >64 was Replaced with 128
[35] = Streptococcus viridans, 25 ocular isolates, Mueller-Hinton broth with 2% lysed horse red blood cells, read-out: Median MIC
[36] = Streptococcus viridans, isolate 1—K1684, read-out: MIC
[37] = Streptococcus viridans, isolate 2—K1680, read-out: MIC
[38] = Streptococcus viridans, isolate 3—E546, read-out: MIC
[39] = Streptococcus viridans, isolate 4—E272, read-out: MIC
[40] = Streptococcus viridans, isolate 5—E506, read-out: MIC
[41] = Streptococcus viridans, isolate 6—E496, read-out: MIC
[42] = Streptococcus viridans, isolate 7—E456, read-out: MIC
[43] = Streptococcus viridans, isolate 8—E432, read-out: MIC
[44] = Streptococcus viridans, isolate 9—E423, read-out: MIC
[45] = Streptococcus viridans, isolate 10—E418, read-out: MIC
[46] = Streptococcus viridans, isolate 11—E412, read-out: MIC
[47] = Streptococcus viridans, isolate 12—E409, read-out: MIC
[48] = Streptococcus viridans, isolate 13—E405, read-out: MIC
[49] = Streptococcus viridans, isolate 14—E404, read-out: MIC
[50] = Streptococcus viridans, isolate 15—E396, read-out: MIC
[51] = Streptococcus viridans, isolate 16—E262, read-out: MIC
[52] = Streptococcus viridans, isolate 17—E362, read-out: MIC
[53] = Streptococcus viridans, isolate 18—E359, read-out: MIC
[54] = Streptococcus viridans, isolate 19—E348, read-out: MIC
[55] = Streptococcus viridans, isolate 20—E344, read-out: MIC
[56] = Streptococcus viridans, isolate 21—E308, read-out: MIC
[57] = Streptococcus viridans, isolate 22—E294, read-out: MIC
[58] = Streptococcus viridans, isolate 23—E292, read-out: MIC
[59] = Streptococcus viridans, isolate 24—E285, read-out: MIC
[60] = Streptococcus viridans, isolate 25—E265, read-out: MIC
[61] = Streptococcus viridans, n=25 per group, read-out: Median MIC
[62] = Streptococcus viridans, 25 isolates, Summary of Results, >64 was Replaced with 128, read-out: MIC90
[63] = Streptococcus viridans, 25 isolates, Summary of Results, read-out: MIC50
[64] = Streptococcus viridans, 25 isolates, Summary of Results, read-out: Median MIC

N=C(N)NCCCCC(=O)Nc1cc(C(F)(F)F)cc(NC(=O)c2cnc(C(=O)Nc3cc(C(F)(F)F)cc(NC(=O)CCCCNC(=N)N)c3SCCN)cn2)c1SCCN [Oligomer 5]
8 µg/mL: MIC [1, 7] | MIC [1, 28] | MIC [2, 36] | MIC [2, 38] | MIC [2, 43] | MIC [2, 46] | MIC [2, 60]
1 µg/mL: MIC [1, 9] | MIC [1, 25]
64 µg/mL: MIC [1, 4] | MIC [1, 24] | MIC [2, 37]
> 64 µg/mL: MIC [1, 16] | MIC [2, 40] | MIC [2, 44] | MIC [2, 45] | MIC [2, 48] | MIC [2, 49]
4 µg/mL: MIC [2, 51] | MIC [2, 55] | MIC [2, 56]
0.125 µg/mL: MIC [1, 6] | MIC [1, 14] | MIC [1, 15] | MIC [1, 22]
0.125 to 128 µg/mL: Range of MICs [1, 32]
0.5 µg/mL: MIC [1, 8] | MIC [1, 18] | MIC [1, 26] | MIC50 [1, 29] | MIC [1, 31] | MIC50 [1, 32] | MIC [2, 41] | MIC [2, 58] | MIC [2, 59]
128 µg/mL: MIC90 [2, 33] | MIC90 [2, 62] | MIC90 ([2]; n=25 per group)
16 µg/mL: MIC [1, 5] | MIC50 ([2]; 25 isolates, Row 13) | MIC [2, 35] | MIC [2, 39] | MIC [2, 42] | MIC [2, 52] | MIC [2, 54] | MIC [2, 61] | MIC50 [2, 63] | MIC [2, 64] | MIC50 ([2]; n=25 per group)
32 µg/mL: MIC [1, 27] | MIC90 [1, 30] | MIC90 [1, 32] | MIC [2, 47] | MIC [2, 50] | MIC [2, 53]
2 µg/mL: MIC [1, 13] | MIC [1, 17] | MIC [1, 23] | MIC [2, 57]
0.25 µg/mL: MIC [1, 10] | MIC [1, 11] | MIC [1, 12] | MIC [1, 19] | MIC [1, 20] | MIC [1, 21]
≤ 4 µg/mL: MIC [1, 3]
0.5 to 128 µg/mL: Range of MICs [2, 34] | Range of MICs ([2]; n=25 per group)

N=C(N)NCCCCC(=O)Nc1cc(C(F)(F)F)cc(NC(=O)c2cc(C(=O)Nc3cc(C(F)(F)F)cc(NC(=O)CCCCNC(=N)N)c3O[C@@H]3CCNC3)ncn2)c1O[C@@H]1CCNC1 [Oligomer 4]
0.5 to 128 µg/mL: Range of MICs [1, 32]
16 µg/mL: MIC [1, 4] | MIC [2, 40] | MIC [2, 50]
0.5 µg/mL: MIC [1, 20]
≤ 4 µg/mL: MIC [1, 3]
1 µg/mL: MIC [1, 9] | MIC [1, 22] | MIC [1, 26] | MIC [2, 38] | MIC [2, 41] | MIC [2, 51] | MIC [2, 60]
32 µg/mL: MIC [1, 5] | MIC [1, 8] | MIC [1, 10] | MIC [2, 49]
8 µg/mL: MIC [1, 7] | MIC90 [2, 33] | MIC [2, 45] | MIC [2, 47] | MIC [2, 54] | MIC90 [2, 62] | MIC90 ([2]; n=25 per group)
64 µg/mL: MIC [1, 6] | MIC [1, 11] | MIC [1, 12] | MIC [1, 21] | MIC90 [1, 30] | MIC90 [1, 32]
1 to 32 µg/mL: Range of MICs [2, 34] | Range of MICs ([2]; n=25 per group)
4 µg/mL: MIC [1, 23] | MIC [1, 24] | MIC [1, 27] | MIC50 [1, 29] | MIC [1, 31] | MIC50 [1, 32] | MIC50 ([2]; 25 isolates, Row 13) | MIC [2, 35] | MIC [2, 37] | MIC [2, 42] | MIC [2, 43] | MIC [2, 44] | MIC [2, 48] | MIC [2, 52] | MIC [2, 53] | MIC [2, 55] | MIC [2, 56] | MIC [2, 57] | MIC [2, 58] | MIC [2, 59] | MIC [2, 61] | MIC50 [2, 63] | MIC [2, 64] | MIC50 ([2]; n=25 per group)
2 µg/mL: MIC [1, 13] | MIC [1, 14] | MIC [1, 15] | MIC [1, 17] | MIC [1, 18] | MIC [1, 19] | MIC [1, 25] | MIC [1, 28] | MIC [2, 36] | MIC [2, 39] | MIC [2, 46]
> 64 µg/mL: MIC [1, 16]
